Data on 14 compounds can be found in article PMC4792735 (Clinical pharmacokinetics, 2016).

For data set [1] the following is noted: metformin alone; OGTT 75 g 2 hours after dosing; p>0.1 vs pre-metformin.
The conditions of data set [2]: metformin 850 mg oral alone.
A short description of another data set: clinical. As to conditions: human, po, 850 mg.
Another data set concerns the target T1, human MATE1 (Homo sapiens, UniProt Q96FL8).
T1 sequence (Q96FL8 1-570): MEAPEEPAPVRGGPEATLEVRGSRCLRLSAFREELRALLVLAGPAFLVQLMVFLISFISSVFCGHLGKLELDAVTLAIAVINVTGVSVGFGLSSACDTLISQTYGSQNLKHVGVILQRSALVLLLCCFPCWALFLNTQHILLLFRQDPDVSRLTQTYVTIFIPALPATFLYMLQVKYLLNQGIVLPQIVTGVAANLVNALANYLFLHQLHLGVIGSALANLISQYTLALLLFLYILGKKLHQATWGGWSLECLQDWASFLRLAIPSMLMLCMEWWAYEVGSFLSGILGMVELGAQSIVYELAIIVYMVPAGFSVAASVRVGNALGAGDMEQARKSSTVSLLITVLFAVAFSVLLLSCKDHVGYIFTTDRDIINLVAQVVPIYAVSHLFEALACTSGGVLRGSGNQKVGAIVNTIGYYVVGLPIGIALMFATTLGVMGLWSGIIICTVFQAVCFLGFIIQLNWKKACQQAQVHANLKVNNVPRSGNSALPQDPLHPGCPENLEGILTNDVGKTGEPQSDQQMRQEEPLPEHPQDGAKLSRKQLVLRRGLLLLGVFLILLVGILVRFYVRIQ
In words: Inhibition of [14C]-metformin uptake in HEK-MATE1 cells. In kind it is cell-based. To be noted: for inhibition at 10 x Cmax,u: human, probe [14C]-metformin 10 µM.

The target in data set [3] is T2, human MATE2K (Homo sapiens, UniProt Q86VL8). In words: in vitro. As to conditions: probe [14C]-metformin 10 µM.
T2 sequence (Q86VL8 1-566 isoform Q86VL8-3): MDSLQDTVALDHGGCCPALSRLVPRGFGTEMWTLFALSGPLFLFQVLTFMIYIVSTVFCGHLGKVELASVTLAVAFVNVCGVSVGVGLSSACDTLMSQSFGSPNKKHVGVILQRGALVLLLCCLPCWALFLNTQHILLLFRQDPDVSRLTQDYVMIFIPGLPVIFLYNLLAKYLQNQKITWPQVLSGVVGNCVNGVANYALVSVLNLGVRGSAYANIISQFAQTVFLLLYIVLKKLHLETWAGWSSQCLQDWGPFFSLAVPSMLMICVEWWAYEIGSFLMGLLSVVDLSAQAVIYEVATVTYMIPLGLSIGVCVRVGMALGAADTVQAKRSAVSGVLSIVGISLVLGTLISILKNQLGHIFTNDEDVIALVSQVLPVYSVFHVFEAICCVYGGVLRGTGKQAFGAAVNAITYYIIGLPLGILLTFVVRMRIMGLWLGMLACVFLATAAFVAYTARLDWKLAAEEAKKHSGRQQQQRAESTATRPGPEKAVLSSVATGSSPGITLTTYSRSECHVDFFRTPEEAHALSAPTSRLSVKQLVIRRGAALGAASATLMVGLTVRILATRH
In data set [4] the target is T3, human OCT1 (Homo sapiens, UniProt O15245).
T3 sequence (O15245 1-554): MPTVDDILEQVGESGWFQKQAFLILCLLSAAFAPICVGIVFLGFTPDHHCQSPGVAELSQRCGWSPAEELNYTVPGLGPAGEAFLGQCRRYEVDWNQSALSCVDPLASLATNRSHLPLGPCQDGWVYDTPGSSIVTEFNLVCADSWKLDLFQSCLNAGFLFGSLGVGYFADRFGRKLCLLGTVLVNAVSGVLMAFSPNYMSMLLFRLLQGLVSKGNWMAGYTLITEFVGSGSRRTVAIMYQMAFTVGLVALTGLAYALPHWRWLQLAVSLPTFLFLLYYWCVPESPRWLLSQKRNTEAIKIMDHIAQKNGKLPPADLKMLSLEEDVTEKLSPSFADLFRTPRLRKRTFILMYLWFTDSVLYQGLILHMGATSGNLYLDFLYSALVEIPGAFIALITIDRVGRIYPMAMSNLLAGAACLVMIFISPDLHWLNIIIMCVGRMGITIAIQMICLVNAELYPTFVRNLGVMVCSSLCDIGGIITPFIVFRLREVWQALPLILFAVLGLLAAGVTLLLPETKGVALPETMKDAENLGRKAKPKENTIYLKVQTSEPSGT
In words: cell-based.

The target of another data set is T4, human PMAT (Homo sapiens, UniProt Q7RTT9).
T4 sequence (Q7RTT9 1-530): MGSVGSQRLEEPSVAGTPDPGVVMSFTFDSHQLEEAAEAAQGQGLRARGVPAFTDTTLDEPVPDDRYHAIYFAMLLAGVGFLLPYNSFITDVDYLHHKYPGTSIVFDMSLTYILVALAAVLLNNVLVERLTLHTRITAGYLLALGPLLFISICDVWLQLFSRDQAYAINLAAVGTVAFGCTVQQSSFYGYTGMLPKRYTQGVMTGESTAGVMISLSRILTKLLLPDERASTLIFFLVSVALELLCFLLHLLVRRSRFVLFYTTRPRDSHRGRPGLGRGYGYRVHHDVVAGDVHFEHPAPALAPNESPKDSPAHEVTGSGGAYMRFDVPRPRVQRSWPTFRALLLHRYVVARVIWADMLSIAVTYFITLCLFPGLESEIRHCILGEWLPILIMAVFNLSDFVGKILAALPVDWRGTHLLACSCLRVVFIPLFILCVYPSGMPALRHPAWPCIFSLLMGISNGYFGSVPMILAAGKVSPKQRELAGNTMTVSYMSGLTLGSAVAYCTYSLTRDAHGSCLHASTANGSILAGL
The data set can be described thus: Inhibition of [14C]-metformin uptake in MDCK-PMAT cells. In kind it is cell-based.

A further data set deals with T5, human OCT3 (Homo sapiens, UniProt O75751).
T5 sequence (O75751 1-556): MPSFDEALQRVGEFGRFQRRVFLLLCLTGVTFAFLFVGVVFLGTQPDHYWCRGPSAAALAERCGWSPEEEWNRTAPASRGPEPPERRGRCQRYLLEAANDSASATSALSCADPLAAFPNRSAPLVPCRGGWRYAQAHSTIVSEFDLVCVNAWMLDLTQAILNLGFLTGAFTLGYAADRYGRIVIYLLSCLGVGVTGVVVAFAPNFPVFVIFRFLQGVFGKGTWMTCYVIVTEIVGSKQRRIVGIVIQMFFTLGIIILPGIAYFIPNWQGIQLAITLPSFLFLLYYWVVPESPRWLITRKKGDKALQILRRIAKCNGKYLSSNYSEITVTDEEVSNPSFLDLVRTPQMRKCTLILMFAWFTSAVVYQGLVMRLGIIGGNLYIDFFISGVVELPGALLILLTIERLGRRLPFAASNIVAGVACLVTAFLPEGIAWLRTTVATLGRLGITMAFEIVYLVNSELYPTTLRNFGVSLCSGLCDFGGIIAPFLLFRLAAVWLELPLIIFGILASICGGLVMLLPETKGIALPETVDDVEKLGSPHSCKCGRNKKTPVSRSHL
In words: Inhibition of [14C]-metformin uptake in HEK-OCT3 cells. In kind it is cell-based. As to conditions: for metformin uptake (remaining): OCT3-mediated, inhibitor at 10x Cmax,u.

Data set [5] concerns the target T2, human MATE2K. In words: cell-based. To be noted: IC50, [14C]-metformin 10 μM uptake, HEK-MATE2K.
The next data set concerns the target T6, human OCT2 (Homo sapiens, UniProt O15244).
T6 sequence (O15244 1-555): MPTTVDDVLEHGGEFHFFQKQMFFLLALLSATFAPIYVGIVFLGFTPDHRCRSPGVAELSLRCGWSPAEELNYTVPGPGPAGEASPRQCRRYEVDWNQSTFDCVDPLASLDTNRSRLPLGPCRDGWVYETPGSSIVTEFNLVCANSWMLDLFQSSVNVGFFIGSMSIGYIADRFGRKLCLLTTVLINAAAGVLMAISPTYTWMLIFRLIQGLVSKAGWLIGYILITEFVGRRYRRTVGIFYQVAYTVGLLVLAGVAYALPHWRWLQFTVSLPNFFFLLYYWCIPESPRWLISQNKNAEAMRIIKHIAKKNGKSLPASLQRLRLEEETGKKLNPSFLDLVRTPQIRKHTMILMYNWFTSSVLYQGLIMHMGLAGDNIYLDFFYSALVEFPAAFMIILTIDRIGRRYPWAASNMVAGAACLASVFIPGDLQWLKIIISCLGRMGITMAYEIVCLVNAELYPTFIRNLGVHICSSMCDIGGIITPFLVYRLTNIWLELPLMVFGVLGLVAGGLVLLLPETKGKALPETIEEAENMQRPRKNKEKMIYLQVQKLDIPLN
In words: Inhibition of [14C]-metformin uptake in HEK-OCT2 cells. In kind it is cell-based. As to conditions: for inhibition at 10 x Cmax,u: human, HEK293-Flp-In cells stably expressing human OCT2 (HEK-OCT2), probe [14C]-metformin 10 µM.

For data set [6] the following is noted: human plasma; cited from earlier work.
The target of data set [7] is T3, human OCT1. To be noted: OCT1-mediated, inhibitor at 10x Cmax,u.
Data set [8] is classed as in vivo, human.

Structures are written as SMILES. Where “and” joins values, the source holds several entries; their conditions need not be identical. Equal entries are not always repeated. Where two headings read alike, the source gives them in different places.

Turning to `CN(C)C(=N)N=C(N)N` [Metformin, metformin], in data set [1], the “glucose AUC after OGTT” value came out at 3100 ± 121 mg·h/L. In data set [2], the CL/F (as a rule, the apparent clearance, not corrected for the fraction that reaches the circulation) turned out to be 1360 ± 440 mL/min and the V/F worked out at 577 ± 179 L. Also, the “Amount in urine0–24” value in data set [2] (11 subjects) was found to be 437 ± 86 mg. In “clinical” (plasma and urine), this compound showed a CL renal of 736 ± 204 mL/min. For the same compound, in the data set “clinical” (plasma), the AUC(0-inf) (usually the area under the concentration-time curve extrapolated to infinity) is 11400 ± 3300 ng·h/mL; the AUC(0-t) (usually exposure summed from dosing to a finite time, without extrapolation to infinity) amounted to 11000 ± 3100 ng·h/mL; the highest level (Cmax) was 1810 ± 600 ng/mL; the Tmax (usually the time at which the peak concentration occurs) worked out at 2.46 ± 0.66 h.
Regarding `Nc1nc(NC2CC2)c2ncn([C@H]3C=C[C@@H](CO)C3)c2n1` [abacavir], the inhibition (in general, the percentage by which the read-out fell short of the control) at 10 x Cmax,u against human MATE1 is at least 50%.
For the compound `CN/C(=N/CCSCc1nc[nH]c1C)NC#N` [cimetidine], the inhibition at 10 x Cmax,u on human MATE1 and against human MATE2K [3] was at least 50% in each case.
`CC(C)/N=c1\cc2n(-c3ccc(Cl)cc3)c3ccccc3nc-2cc1Nc1ccc(Cl)cc1` [clofazimine] returned an inhibition at 10 x Cmax,u on human MATE1 of at least 50%.
`CC(=O)OCC(CCn1cnc2cnc(N)nc21)COC(C)=O` [famciclovir] yielded an inhibition at 10 x Cmax,u against human MATE2K [3] of at least 50%.
Take `COc1c(N2C[C@@H]3CCCN[C@@H]3C2)c(F)cc2c(=O)c(C(=O)O)cn(C3CC3)c12` [moxifloxacin]: the IC50 – broadly, the concentration needed to halve the response being measured – at human OCT1 [4] is 47 µM; at human PMAT, over 151 µM; against human MATE1 it was 5.12 µM; at human OCT3, over 151 µM; against human MATE2K [5], 1.19 µM; against human OCT2, over 151 µM. The inhibition at 10 x Cmax,u against human MATE1 and on human MATE2K [3] was at least 50% each time.
In turn, `C=CCN1CC[C@]23c4c5ccc(O)c4O[C@H]2C(=O)CC[C@@]3(O)[C@H]1C5` [naloxone] displayed an inhibition at 10 x Cmax,u against human OCT2 of at least 50%.
In the case of `CNC(=C[N+](=O)[O-])NCCSCc1csc(CN(C)C)n1` [nizatidine], the IC50 against human OCT1 [4] was over 115 µM; against human PMAT, over 115 µM; against human MATE1 it was 52.7 µM; against human OCT3 it was 41.1 µM; at human MATE2K [5], 7.8 µM and 7.81 µM; at human OCT2, over 115 µM. For the same compound, the inhibition at 10 x Cmax,u against human MATE2K [3] was at least 50%. Moreover, the “metformin uptake (remaining)” value at human OCT3 and on human OCT1 [7] was over 50% in each case. Besides, in [6], the protein binding is reported as 35%. The half-life (commonly the time needed for the level to fall by half in the phase considered) in data set [8] (human, plasma, oral) is about 3 h. Besides, in [8] (human, plasma, po, 600 mg), the Cmax – broadly, the peak of the concentration-time curve – was 4200 ng/mL and 12.7 µM. Further, the “calculated Cmax,u” value in data set [8] (nizatidine 600 mg oral, calculated with 35% protein binding) was 2.7 ± 0.2 μg/mL and 8.2 μM.
`CCn1cc(C(=O)O)c(=O)c2cc(F)c(N3CCNCC3)cc21` [norfloxacin]: the IC50 against human OCT1 [4] is over 160 µM; on human PMAT, over 160 µM; against human MATE1, 19.9 µM; against human OCT3, over 160 µM; against human MATE2K [5] it was 4.74 µM; against human OCT2, over 160 µM. The inhibition at 10 x Cmax,u against human MATE1 and at human MATE2K [3] was at least 50% in each case. Besides, the “metformin uptake (remaining)” value at human OCT3 and at human OCT1 [7] was over 50% in each case.
As to `Cc1nccn1CC1CCc2c(c3ccccc3n2C)C1=O` (stereo not drawn) [ondansetron], the IC50 at human OCT1 [4], against human PMAT and at human OCT3 was over 1.32 µM each time. The inhibition at 10 x Cmax,u against human MATE1 and at human MATE2K [3] was at least 50% each time. In addition, the “metformin uptake (remaining)” value at human OCT3 and at human OCT1 [7] was over 50% throughout.
Consider `CCN(CC)CCNC(=O)c1ccc(N)cc1` [procainamide], for which the inhibition at 10 x Cmax,u at human MATE2K [3] and at human OCT2 was at least 50% in each case.
For `C=C[C@H]1C[N@@]2CC[C@H]1C[C@H]2[C@H](O)c1ccnc2ccc(OC)cc12` [quinine], the inhibition at 10 x Cmax,u against human MATE1, against human MATE2K [3] and against human OCT2 was at least 50% throughout.
Turning to `CNC(=C[N+](=O)[O-])NCCSCc1ccc(CN(C)C)o1` [ranitidine], the IC50 is 26.8 µM against human OCT1 [4]; over 214 µM against human PMAT; 93.5 µM at human OCT3; 4.63 µM against human MATE2K [5]; 15.7 µM at human OCT2. Further, the inhibition at 10 x Cmax,u against human MATE1 and against human MATE2K [3] was at least 50% throughout. Further, the “metformin uptake (remaining)” value at human OCT3 and on human OCT1 [7] was over 50% in each case.
In the case of `COc1cc(Cc2cnc(N)nc2N)cc(OC)c1OC` [trimethoprim], the inhibition at 10 x Cmax,u against human MATE1 and against human MATE2K [3] was at least 50% throughout.
